How the values were obtained:
[1] = tested on: Aβ levels in the brain; assay: Dietary cholesterol and Aβ levels in rat cerebral cortex; format: in vivo; conditions: 20 month old rats, high cholesterol diet (5% cholesterol) vs low cholesterol diet (0.1% cholesterol), 10 weeks
Protocol: These experiments were performed on 20 month old rats. The rats were fed a low cholesterol diet (0.1% cholesterol) or a high cholesterol diet (5% cholesterol). After 10 weeks, the animals were sacrificed and the cortex was removed for measurement of Aβ levels. Aβ was assayed by immunoprecipitating cortical homogenates with the Aβ antibody B12, followed by Western blotting with the commercially available Aβ monoclonal antibody 4G8.

[2] = tested on: Aβ production by human cortical neurons; assay: Effect of HMG CoA reductase inhibitors on Aβ levels in human cortical neuronal cultures; format: cell-based; conditions: 100 μM, 48 hours
Protocol: Busciglio et al., (1993) Proc. Nat. Acad. Sci. 90, 2092-2096, described the production of Aβ by human cortical neurons in culture . To determine whether cholesterol can affect the production of Aβ, primary human brain cultures were established from the cortex of 16-20 week fetal abortuses, and the neurons incubated in the absence or presence of very low density lipoprotein (VLDL), low density lipoprotein (LDL) or high density lipoprotein (HDL) particles isolated from human plasma. These lipoprotein particles are the physiological vehicles for the transport of cholesterol to cells. The effects of the different lipoprotein particles on the levels of Aβ in the human cortical cultures was determined. The human cortical cultures were maintained in serum-free Dulbecco's Modified Eagle's Medium (DMEM) with N2 supplements (a serum-free supplement that supports neuronal viability). The medium was then changed to the same medium (controls) or medium supplemented with VLDL, LDL, or HDL particles. After incubation for 48-72 hours, Aβ was measured by immunoprecipitation of the culture medium with a polyclonal antibody to Aβ (B12), followed by Western blotting with a mohoclonal antibody to Aβ (6E10). […] The bands corresponding to the 40 and 42 amino acid form of Aβ were analyzed quantitatively using a computer software program. […]

Row | Structure (SMILES) | increase in Aβ levels in rat cerebral cortex [1] | levels of Aβ relative to controls [2]
1 | CC(C)CCC[C@@H](C)[C@H]1CC[C@H]2[C@@H]3CC=C4C[C@@H](O)CC[C@]4(C)[C@H]3CC[C@]12C [cholesterol] | about 50% | 
2 | CC[C@H](C)C(=O)O[C@H]1C[C@@H](C)C=C2C=C[C@H](C)[C@H](CC[C@@H]3C[C@@H](O)CC(=O)O3)[C@H]21 [lovastatin] |  | significantly decreased levels of Aβ

From patent US6440387B1, “Methods for determining risk of Alzheimer's disease” (Children's Medical Center Corporation, priority 1998, dated 2002)
